What was measured:
human GMPs = assay: Ex vivo expansion of human GMPs sorted from cord blood; type: cell-based; settings: added to SCF/GDC-0879
Text: (A) Growth curves of human GMPs. Human GMPs were FACS sorted from cord blood and cultured in the designated conditions. Cells were passaged every 3 days and replated into 12-well plates at a density of 1×10^5 cells/well. Data are represented as mean±SD from three independent experiments. (B) Structure of TN-2-30. (C) Representative phase-contrast images of human GMPs cultured in modified SCF/2i. P, passage number. (D) Sorted human GMPs were expanded in modified SCF/2i and induced to differentiate towards granulocytes by treatment with 30 ng/ml human G-CSF for 10 days. Differentiated cells were analyzed by Giemsa staining (upper panel) and flow cytometry (lower panel). Flow cytometry data are represented as mean±SD from three independent experiments. (E) Relative MPO activities of human GMPs and human GMP-derived granulocytes stimulated with or without PMA for 2 hours. Differentiated cells generated in (D) were plated into 96-well plates at a density of 2×10^4 cells/well and stimulated with or without PMA for 2 hours, after which MPO activities in the supernatants were measured. Data are represented as mean±SD from three independent experiments. […] (H) Differentiated cells generated in (D) and (F) were plated into 96-well plates at a density of 2×10^4 cells/well and stimulated with or without 500 ng/ml LPS for 6 hours, after which cytokine secretion in the supernatants was measured by ELISA. […]

mouse GMPs = assay: Ex vivo expansion of mouse bone marrow-derived cells / mouse GMPs; type: cell-based
Text: (A) Schematic of the experimental design to identify growth factors and small molecules that can promote expansion of mouse bone marrow-derived stem cells. (B) Representative phase-contrast images of mouse bone marrow cells cultured in N2B27 supplemented with the indicated small molecule inhibitors for 7 days. (C) Representative phase-contrast images of mouse bone marrow cells cultured in N2B27 supplemented with SCF plus GDC0879 or SB590885 for 3 passages. (D) Cell growth curves. Bone marrow cells isolated from C57BL/6J mice were plated into 24-well plates at a density of 2×10^5 cells/well and cultured in B7 medium supplemented with the indicated small molecules/growth factor. Cells were counted and passaged every 3 days. Data are represented as mean±SD from three independent experiments. (E) Bone marrow cells isolated from C57BL/6J mice were cultured in B7 medium supplemented with SCF/2i. Cells were passaged every 3 days. Representative phase-contrast pictures showing SCF/2i cells at different passages. (F) Cytogenetic analysis of SCF/2i cells using the GWT banding method. Bone marrow cells isolated from a female C57BL/6J mouse were expanded in SCF/2i for 8 passages before used for cytogenetic analysis. […] (G) Sequential images of individual bone marrow cells during expansion in B7 medium supplemented with SCF/2i. SCF/2i-expanded bone marrow cells were plated into 96-well plates at a density of 50 cells/well and cultured in SCF/2i. Sequential images were taken using the Keyence BZ-X710 microscopy every 24 hours. 15.7±4.0 colonies formed per well on day 4 (n=3×96). Data are represented as mean±SD from three independent experiments.
Mouse GMP derivation, expansion, and differentiation. Cells were cultured at 37° C. in a 5% CO2 water jacket incubator (Thermo Scientific). Bone marrow cells isolated from C57BL/6J, mTmG or CAG-Cas9-EGFP mice were plated into 6-well plates at a density of 2×10^6 cells/well and cultured in 2 mL B7 medium supplemented with 50 ng/mL SCF, 1 μM GDC-0879, and 10 μM SKL2001 (SCF/2i). After 3-4 days, cells were dissociated into single-cell suspension by pipetting up and down and replated into 6-well plates at a density of 2×10^6 cells/well and cultured in 2 mL B7 medium supplemented with SCF/2i. After 2 passages in SCF/2i, the majority of cells were GMPs. GMPs were routinely passaged every 3 days. To induce differentiation, GMPs were plated into 10 cm tissue culture dishes and cultured in RPMI-1640 medium containing 10% FBS and supplemented with either 20 ng/mL M-CSF (for macrophage differentiation) or 20 ng/mL G-CSF (for granulocyte differentiation). GMP-derived macrophages were harvested on day 7 (medium was changed once on day 4) and GMP-derived granulocytes were harvested on day 3 and used for the further experiments.
Development of defined conditions for the long-term ex vivo expansion of hematopoietic stem/progenitor cells. To develop conditions for the long-term expansion of stem or progenitor cells of the hematopoietic system, screening was conducted to identify small molecules and growth factors/cytokines that can promote their ex vivo expansion (see FIG. 3A). Specifically, bone marrow cells isolated from adult C57BL/6 mice were plated into 96-well plates in serum-free N2B27 medium. Then a first-round small molecule screening was performed. It was reasoned that if a small molecule can block differentiation or promote expansion of stem cells, these stem cells should form colonies with a uniform cell morphology. […] Upon passaging, however, no new colonies were formed in culture with any of the 5 small molecule inhibitors. A second-round screening was conducted to identify growth factors/cytokines that could further improve the expansion of the colonies.
More importantly, these cells could be expanded robustly at clonal density (see FIG. 3G).
SCF/2i-expanded cells are GMPs. […]

SMILES: O=C(NCCCn1ccnc1)c1cc(-c2ccco2)on1 [SKL2001]
- effect of addition on expansion of human GMPs (human GMPs): only marginally improved
- long-term expansion of a uniform cell population (mouse GMPs; combined with SCF and GDC-0879): allowed for the long-term expansion
- interaction with GDC-0879 in promoting expansion of the uniform round-shaped cells (mouse GMPs; second screening, with GDC-0879): acted synergistically
- requirement for expansion of β-catenin knockout mouse GMPs (mouse GMPs; β-catenin knockout mouse GMPs): still required the addition of SKL2001
